Test results reported in patent publication US20230234920A1, “Azirine Containing Compounds as Anti-Angiogenesis Agents and a Process for the Preparation Thereof” (COUNCIL OF SCIENTIFIC & INDUSTRIAL RESEARCH, priority 2020, published 2023).

These compounds were tested on HUVECs (assay: Capillary-like tube formation assay (tubulogenesis)). Conditions: Homo sapiens, HUVEC, read-out: IC50 value.
Format: cell-based, human
Experimental: FIG. 2 represents effect of Compound 1 on capillary tube formation of HUVECs. Endothelial cells in Matrigel were incubated with ECM basal medium in the presence of compound 1 at the indicated concentrations for 6 h. Cell viability was assessed by Calcein-AM dye added few min. before the completion of 6 h. then photographs at 10×magnification were taken using an inverted microscope. The tubule length of HUVECs was quantified by Leica QWin software. Tubule network formation is expressed as a percentage of that vehicle (0.1% DMSO) treated cells (control).
FIG. 9 represents effect of racemic mixture (chiral isomer 1-1 and chiral isomer 2-1) of Compound 1 on capillary tube formation of HUVECs. Endothelial cells seeded in matrigel were incubated at the indicated concentrations of compound 1 racemic mixtures (1-1 and 2-1) with ECM basal medium for 6 h. Calcein-AM treatment was added to the ECs few minutes before completion of 6 h and pictures were captured using an inverted microscope at 10×magnification. The tubular structures of HUVECs were measured using Leica QWin software and tubulogenesis was expressed as a % of that vehicle (0.1% DMSO) treated cells (control) well.
HUVEC cells were incubated with or without sunitinib (20 nM) for 6 h at indicated concentrations of chiral isomers of Compound 1 (1-1 and 2-1). Photographs were taken using an inverted microscope at 10×magnification after Calcein-AM treatment to the ECs few minutes before completion of 6 h. The tubule length of HUVECs was quantified by Leica QWin software represented as a % of that vehicle (0.1% DMSO) treated cells (control) well.
To examine the effect of Compound 1 on angiogenesis, capillary tube formation assay was performed on regular or reduced growth factor Matrigel, taking VEGF (50 ng/mL) treated cells as a positive control and sunitinib (50 nM) as a negative control (FIG. 2). HUVECs seeded onto the matrigel with compound 1 at different concentrations of (10 μM, 5 μM, 1 μM, 800 nM, 500 nM, 250 nM, 125 nM, 75 nM, 50 nM, 25 nM and 10 nM) were incubated for six hours.
HUVECs (Human Umbilical Vein Endothelial Cells) were seeded onto the pre-coated matrigel (CORNING; 354230) in 96 wells plate at the rate of 11000 cells/well in incomplete ECM basal medium. Control group received vehicle, VEGF at 50 ng/mL as a positive and sunitinib at 50 nM as a negative control were used. Compound 1 at different dose concentrations (10 μM, 5 μM, 1 μM, 800 nM, 500 nM, 250 nM, 100 nM, 75 nM, 50 nM and 25 nM) were employed on seeded HUVECs in incomplete medium. Post 6 h of incubation Calcein-AM (Invitrogen) was added to all the respective groups and then the tubule pattern was observed and photographs were taken using an inverted fluorescent microscope (DM 6000, Leica Microsystems, USA). Relative tubule lengths were measured using Leica Q-Win software version 3.5.1. (Leica Microsystems, Switzerland).
For `CCOP(=O)(OCC)C1N=C1CCc1ccc(OC)cc1` (stereo not drawn) [Compound 49, Diethyl (3-(4-methoxyphenethyl)-2H-azirin-2-yl)phosphonate], the IC50 was 0.25 µM. Compound `COc1ccc(CCC2=NC2C#N)cc1` (stereo not drawn) [Compound 48, 3-(4-Methoxyphenethyl)-2H-azirine-2-carbonitrile] has an IC50 of 0.25 µM.

Same assay, conditions: Homo sapiens, HUVEC; endothelial tubule network assay, anti-angiogenic activity; read-out: IC50 value
`CCOC(=O)C1N=C1CCc1ccc(Br)cc1` (stereo not drawn) [Compound 15, Ethyl 3-(4-bromophenethyl)-2H-azirine-2-carboxylate] gave an IC50 of 0.8 µM. `CCOC(=O)C1N=C1CCc1cn(C(=O)OC(C)(C)C)c2ccccc12` (stereo not drawn) [Compound 38, tert-Butyl-3-(2-(2-(ethoxycarbonyl)-2H-azirin-3-yl)ethyl)-1H-indole-1-carboxylate] was tested, and the IC50 was 0.075 µM. `CCOC(=O)C1N=C1CC/C=C(\C)CCC=C(C)C` (stereo not drawn) [Compound 5, Ethyl (E)-3-(4,8-dimethylnona-3,7-dien-1-yl)-2H-azirine-2-carboxylate] showed an IC50 of 0.35 µM. With `CCCCCOC(=O)C1N=C1CCc1ccc(OC)cc1` (stereo not drawn) [Compound 23, Pentyl 3-(4-methoxyphenethyl)-2H-azirine-2-carboxylate] the IC50 was 0.6 µM. For `C=CCCCC1=NC1C(=O)OCC` (stereo not drawn) [Compound 2, Ethyl 3-(pent-4-en-1-yl)-2H-azirine-2-carboxylate], the IC50 was 0.25 µM. With `COc1ccc(CCC2=NC2C(=O)OC(C)(C)C)cc1` (stereo not drawn) [Compound 17, tert-Butyl 3-(4-methoxyphenethyl)-2H-azirine-2-carboxylate] the IC50 was 0.4 µM. For `C=CCOC(=O)C1N=C1CCc1ccc(OC)cc1` (stereo not drawn) [Compound 26, Allyl 3-(4-methoxyphenethyl)-2H-azirine-2-carboxylate], the IC50 was 0.5 µM. `CCOC(=O)C1N=C1CCc1ccc(C#N)cc1` (stereo not drawn) [Compound 31, Ethyl 3-(4-cyanophenethyl)-2H-azirine-2-carboxylate] showed an IC50 of 0.25 µM. `COc1ccc(CCC2=NC2C(=O)OC(C)C)cc1` (stereo not drawn) [Compound 20, Isopropyl 3-(4-methoxyphenethyl)-2H-azirine-2-carboxylate] showed an IC50 of 0.75 µM. In the case of `CCOC(=O)C1N=C1/C=C/c1ccc(OC)cc1` (stereo not drawn) [Compound 13, Ethyl (E)-3-(4-methoxystyryl)-2H-azirine-2-carboxylate], the IC50 is reported as 0.1 µM. For `CCC(C)OC(=O)C1N=C1CCc1ccc(OC)cc1` (stereo not drawn) [Compound 22, sec-Butyl 3-(4-methoxyphenethyl)-2H-azirine-2-carboxylate], the IC50 was 0.6 µM. `CCOC(=O)C1N=C1CCc1ccc2ccccc2c1` (stereo not drawn) [Compound 27, Ethyl 3-(2-(naphthalen-2-yl)ethyl)-2H-azirine-2-carboxylate] gave an IC50 of 0.1 µM. Compound `CCOC(=O)C1N=C1CCc1ccc(C)cc1` (stereo not drawn) [Compound 7, Ethyl 3-(4-methylphenethyl)-2H-azirine-2-carboxylate] has an IC50 of 4 µM. `COc1ccc(CCC2=NC2c2nnn[nH]2)cc1` (stereo not drawn) [Compound 51, 5-(3-(4-Methoxyphenethyl)-2H-azirin-2-yl)-1H-tetrazole] was tested, and the IC50 was 0.1 µM. In the case of `C=Cc1ccc(CCC2=NC2C(=O)OCC)cc1` (stereo not drawn) [Compound 36, Ethyl 3-(4-vinylphenethyl)-2H-azirine-2-carboxylate], the IC50 is reported as 0.25 µM. For `CCOC(=O)C1N=C1CCCc1ccc2occc2c1` (stereo not drawn) [Compound 40, Ethyl-3-(3-(benzofuran-5-yl)propyl)-2H-azirine-2-carboxylate], the IC50 was 0.5 µM. `COc1ccc(CCC2=NC2C(=O)OCC(C)C)cc1` (stereo not drawn) [Compound 21, Isobutyl 3-(4-methoxyphenethyl)-2H-azirine-2-carboxylate] showed an IC50 of 0.75 µM. For `COC(=O)C1N=C1CCc1ccc(OC)cc1` (stereo not drawn) [Compound 14, Methyl 3-(4-methoxyphenethyl)-2H-azirine-2-carboxylate], the IC50 was 0.75 µM. `CCOC(=O)C1N=C1CCc1cc(OC)c(OC)c(OC)c1` (stereo not drawn) [Compound 12, Ethyl 3-(3,4,5-trimethoxyphenethyl)-2H-azirine-2-carboxylate] gave an IC50 of 0.2 µM. `COCCOC(=O)C1N=C1CCc1ccc(OC)cc1` (stereo not drawn) [Compound 25, 2-Methoxyethyl 3-(4-methoxyphenethyl)-2H-azirine-2-carboxylate] gave an IC50 of 0.7 µM. Compound `CCCCOc1ccc(CCC2=NC2C(=O)OCC)cc1` (stereo not drawn) [Compound 32, Ethyl 3-(4-butoxyphenethyl)-2H-azirine-2-carboxylate] has an IC50 of 0.05 µM. `CCOC(=O)C1N=C1CCc1ccc(N(C)C)cc1` (stereo not drawn) [Compound 47, Ethyl 3-(4-(dimethylamino)phenethyl)-2H-azirine-2-carboxylate] gave an IC50 of 0.5 µM. `CCOC(=O)C1N=C1CCc1ccc2c(c1)OCO2` (stereo not drawn) [Compound 41, Ethyl 3-(2-(benzo[d][1,3]dioxol-5-yl)ethyl)-2H-azirine-2-carboxylate] gave an IC50 of 1 µM. In the case of `COc1ccc(CC2(C(=O)OCc3ccccc3)N=C2C)cc1` (stereo not drawn) [Compound 18, Benzyl 2-(4-methoxybenzyl)-3-methyl-2H-azirine-2-carboxylate], the IC50 is reported as 0.4 µM. For `CCOC(=O)C1N=C1CCCc1ccc2c(c1)OCO2` (stereo not drawn) [Compound 43, Ethyl 3-(3-(benzo[d][1,3]dioxol-5-yl)propyl)-2H-azirine-2-carboxylate], the IC50 was 0.25 µM. With `COc1ccc(CCC2=NC2C(=O)OCCC(C)C)cc1` (stereo not drawn) [Compound 24, Isopentyl 3-(4-methoxyphenethyl)-2H-azirine-2-carboxylate] the IC50 was 0.7 µM. `CCOC(=O)C1N=C1CCCc1ccc2c(c1)CCO2` (stereo not drawn) [Compound 37, Ethyl-3-(3-(2,3-dihydrobenzofuran-5-yl)propyl)-2H-azirine-2-carboxylate] showed an IC50 of 0.05 µM. Work on `CCOC(=O)C1N=C1CCc1ccccc1` (stereo not drawn) [Compound 6, Ethyl 3-phenethyl-2H-azirine-2-carboxylate] yielded an IC50 of 5 µM. With `CCOC(=O)C1N=C1CCc1ccc2c(c1)CCO2` (stereo not drawn) [Compound 39, Ethyl 3-(2-(2,3-dihydrobenzofuran-5-yl)ethyl)-2H-azirine-2-carboxylate] the IC50 was 2.5 µM. For `CCOC(=O)C1N=C1CCc1ccc(F)cc1` (stereo not drawn) [Compound 10, Ethyl 3-(4-fluorophenethyl)-2H-azirine-2-carboxylate], the IC50 was 0.6 µM. `CCOC(=O)C1N=C1CCC1CCCO1` (stereo not drawn) [Compound 30, Ethyl 3-(2-(tetrahydrofuran-2-yl)ethyl)-2H-azirine-2-carboxylate] showed an IC50 of 0.25 µM. `CCCOC(=O)C1N=C1CCc1ccc(OC)cc1` (stereo not drawn) [Compound 19, Propyl 3-(4-methoxyphenethyl)-2H-azirine-2-carboxylate] was tested, and the IC50 was 0.8 µM. `CCCCCCCCOC(=O)C1N=C1CCc1ccc(OC)cc1` (stereo not drawn) [Compound 29, Octyl 3-(4-methoxyphenethyl)-2H-azirine-2-carboxylate] was tested, and the IC50 was 0.25 µM. For `CCOC(=O)C1N=C1CCc1ccc(I)cc1` (stereo not drawn) [Compound 16, Ethyl 3-(4-iodophenethyl)-2H-azirine-2-carboxylate], the IC50 was 0.8 µM. Compound `CCOC(=O)C1N=C1CCCc1ccc2c(c1)CCCO2` (stereo not drawn) [Compound 45, Ethyl 3-(3-(chroman-6-yl)propyl)-2H-azirine-2-carboxylate] has an IC50 of 0.1 µM. For `CCOC(=O)C1N=C1CC/C=C/c1ccccc1` (stereo not drawn) [Compound 11, Ethyl (E)-3-(4-phenylbut-3-en-1-yl)-2H-azirine-2-carboxylate], the IC50 was 0.45 µM. Work on `CCOC(=O)C1N=C1CCc1ccc(OC(F)(F)F)cc1` (stereo not drawn) [Compound 28, Ethyl 3-(4-(trifluoromethoxy)phenethyl)-2H-azirine-2-carboxylate] yielded an IC50 of 0.05 µM. Work on `CCOC(=O)C1N=C1CCc1ccc(C(C)(C)C)cc1` (stereo not drawn) [Compound 9, Ethyl 3-(4-(tert-butyl)phenethyl)-2H-azirine-2-carboxylate] yielded an IC50 of 0.55 µM. Work on `CCOC(=O)C1N=C1CCc1ccc(OC2CCOC2)cc1` (stereo not drawn) [Compound 50, Ethyl 3-(4-((tetrahydrofuran-3-yl)oxy)phenethyl)-2H-azirine-2-carboxylate] yielded an IC50 of 0.25 µM. With `CCOC(=O)C1(C(=O)OCC)N=C1CCc1ccc(OC)cc1` [Compound 35, Diethyl 3-(4-methoxyphenethyl)-2H-azirine-2,2-dicarboxylate] the IC50 was 0.25 µM.

Same assay, conditions: endothelial tubule network assay; result in words
In the case of `CCOC(=O)C1N=C1CCC=C(C)C` (stereo not drawn) [Compound 4, Ethyl 3-(4-methylpent-3-en-1-yl)-2H-azirine-2-carboxylate], the IC50 value is reported as “Not Active”.

Same assay, conditions: remark on IC50 versus sunitinib
`CCOC(=O)C1N=C1CCc1cn(C(=O)OC(C)(C)C)c2ccccc12` (stereo not drawn) [Compound 38, tert-Butyl-3-(2-(2-(ethoxycarbonyl)-2H-azirin-3-yl)ethyl)-1H-indole-1-carboxylate] was tested, and the remarks was “comparable to sunitinib”. `CCOC(=O)C1N=C1/C=C/c1ccc(OC)cc1` (stereo not drawn) [Compound 13, Ethyl (E)-3-(4-methoxystyryl)-2H-azirine-2-carboxylate] was tested, and the remarks was “comparable to sunitinib”. In the case of `CCOC(=O)C1N=C1CCc1ccc2ccccc2c1` (stereo not drawn) [Compound 27, Ethyl 3-(2-(naphthalen-2-yl)ethyl)-2H-azirine-2-carboxylate], the remarks is reported as “comparable to sunitinib”. In the case of `COc1ccc(CCC2=NC2c2nnn[nH]2)cc1` (stereo not drawn) [Compound 51, 5-(3-(4-Methoxyphenethyl)-2H-azirin-2-yl)-1H-tetrazole], the remarks is reported as “comparable to sunitinib”. With `CCCCOc1ccc(CCC2=NC2C(=O)OCC)cc1` (stereo not drawn) [Compound 32, Ethyl 3-(4-butoxyphenethyl)-2H-azirine-2-carboxylate] the remarks was “comparable to sunitinib”. In the case of `CCOC(=O)C1N=C1CCCc1ccc2c(c1)CCO2` (stereo not drawn) [Compound 37, Ethyl-3-(3-(2,3-dihydrobenzofuran-5-yl)propyl)-2H-azirine-2-carboxylate], the remarks is reported as “comparable to sunitinib”. `CCOC(=O)C1N=C1CCCc1ccc2c(c1)CCCO2` (stereo not drawn) [Compound 45, Ethyl 3-(3-(chroman-6-yl)propyl)-2H-azirine-2-carboxylate] was tested, and the remarks was “comparable to sunitinib”. For `CCOC(=O)C1N=C1CCc1ccc(OC(F)(F)F)cc1` (stereo not drawn) [Compound 28, Ethyl 3-(4-(trifluoromethoxy)phenethyl)-2H-azirine-2-carboxylate], the remarks was “comparable to sunitinib”.
